Seven molecules from US20230250095A1, “BENZIMIDAZOLE DERIVATIVES, PREPARATION METHOD THEREFOR AND MEDICAL USE THEREOF” (TUOJIE BIOTECH(SHANGHAI) CO., LTD., priority 2020, published 2023) can be followed below.

For one data set, the target named is T1, CYP2D6 (Homo sapiens, UniProt P10635).
T1 construct: 150-donor pooled human liver microsomes (purchased from Corning, Cat. No. 452117); tissue Corning 452117; host or cells: 150-donor pooled human liver microsomes
In words: CYP inhibition assay in pooled human liver microsomes (bufuralol hydrochloride). It is filed as in vitro ADME. As to conditions: human liver microsomes 0.2 mg/mL, substrate bufuralol hydrochloride; read-out: CYP 2D6 (μM) IC50. On the procedure:
The metabolic reactions of representative substrates of 5 major human CYP subtypes (CYP1A2, CYP2C9, CYP2C19, CYP2D6, CYP3A4/5) were evaluated using 150-donor pooled human liver microsomes (purchased from Corning, Cat. No. 452117). The effects of different concentrations of the test compounds on the metabolic reactions of phenacetin (CYP1A2), diclofenac sodium (CYP2C9), S-mephenytoin (CYP2C19), bufuralol hydrochloride (CYP2D6) and midazolam (CYP3A4/5) were determined by liquid chromatography-tandem mass spectrometry (LC/MS/MS).
30 μM phenacetin, 10 μM diclofenac sodium, 35 μM S-mephenytoin, 5 μM bufuralol hydrochloride, 3 μM midazolam, 1 mM NADPH, and test compounds (at concentrations of 0.1 μmol/L, 0.3 μmol/L, 1 μmol/L, 3 μmol/L, 10 μmol/L, and 30 μmol/L, respectively) or positive compound or blank were incubated with 200 μL of a reaction system of pooled human liver microsomes (0.2 mg/mL) (100 mmol/L phosphate buffer, pH 7.4, containing 0.3% by volume of DMSO, 0.6% by volume of acetonitrile, and 0.1% by volume of methanol) at 37° C. for 5 min. Then, 200 μL of acetonitrile containing 3% formic acid and 40 nM internal standard verapamil was added, and the mixture was centrifuged at 4000 rpm for 50 min. The mixture was cooled on ice for 20 min and centrifuged at 4000 rpm for 20 min to precipitate the protein. 200 μL of the supernatant was analyzed by LC/MS/MS.
The peak area was calculated from the chromatogram. The residual activity rate (%) was calculated by the following formula:
peak area rate=peak area of metabolite/peak area of internal standard
residual activity rate (%)=peak area proportion of the test compound group/peak area proportion of the blank group
The half maximal inhibitory concentrations (IC50) against CYP were calculated by Excel XLfit 5.3.1.3.
A general note: Microsomes from liver hold many membrane-bound enzymes, among them those of drug oxidation.

A short description of data set [1]: In vitro metabolic stability in human hepatocytes. It is filed as in vitro ADME. The note with it: human hepatocytes 1×10^6 cells/mL, 37° C., up to 120 min; read-out: Intrinsic clearance (uL/min/10^6 cells). On the procedure: The concentrations of the test compounds in the reaction system were determined by LC/MS/MS, so that the intrinsic clearance of the test compounds was calculated, and the in vitro metabolic stability in human hepatocytes was evaluated.
247.5 μL of a mixed solution of human hepatocytes at 1×10^6 cells/mL (purchased from BioreclamationIVT, Cat. No. S01205) and 2.5 μL of 100 μM test compound or positive control was added to a plate to initiate the reaction. The plate was incubated at 37° C. and 600 rpm. 20 μL of incubation system was transferred to a stop plate at 0.5 min, 5 min, 15 min, 30 min, 45 min, 60 min, 80 min, 100 min and 120 min. Then, the mixture was vortexed for 2 min to be mixed well. The stop plate was centrifuged at 4000 rpm for 20 min. 40 μL of supernatant of each compound was transferred to a 96-well sample template, after which 160 μL of pure water was added to dilute the samples.
The resulting samples were quantified from ion chromatogram. The residual rate was calculated from the peak area of the test compound or the positive control. Slope k was determined by linear regression of the […] of residual rates versus incubation time using Microsoft Excel.
Intrinsic clearance (in vitro CLint, μL/min/10^6 cells) was calculated from the slope value according to the following equation:
V=incubation volume (0.25 mL);
N=number of cells per well (0.25×10^6 cells)

Data set [2] is described as follows: In vivo pharmacokinetic experiment in rats, intragastric administration. As to conditions: SD rats, 5 mg/kg. The procedure: The drug concentrations in the plasma of the test animals (rats) at different time points after intragastric administration of the compound of the present disclosure were determined by an LC/MS/MS method. The pharmacokinetic behavior in rats of the compound of the present disclosure was studied and its pharmacokinetic profile was evaluated.
Male, healthy SD rats of SPF grade, 6-8 weeks old, 3 rats in each group.
Intragastric administration: a certain amount of compound was weighed and prepared into a 1 mg/mL white suspension by adding 0.5% by volume of hydroxypropyl methylcellulose, 0.1% by volume of tween 80 and 99.4% by volume of water.
SD rats were administered intragastrically with compound 4 or BLU-5937 at a dose of 5 mg/kg after fasting overnight.
Rats were administered intragastrically with the compound of the present disclosure. 0.2 mL of blood was collected from the jugular vein at 0.25 h, 0.5 h, 1 h, 2 h, 4 h, 8 h and 24 h after the administration, placed in a tube containing EDTA-K2, separated by centrifugation at 4° C. at 4000 rpm for 5 min to obtain plasma, which was stored at −75° C.
Determination of the content of the test compounds at different concentrations in the plasma of rats after intragastric administration: 50 μL of rat plasma at each time point after the administration was taken, 200 μL of a solution of internal standard dexamethasone (50 ng/mL) in acetonitrile was added thereto, and the mixture was vortexed for 30 s to be mixed well, centrifuged at 4° C. at 4700 rpm for 15 min. The supernatant of the plasma sample was subjected to 3-fold dilution with water, and 2.0 μL of the dilution was taken for LC/MS/MS analysis.

T1 sequence (P10635 whole entry): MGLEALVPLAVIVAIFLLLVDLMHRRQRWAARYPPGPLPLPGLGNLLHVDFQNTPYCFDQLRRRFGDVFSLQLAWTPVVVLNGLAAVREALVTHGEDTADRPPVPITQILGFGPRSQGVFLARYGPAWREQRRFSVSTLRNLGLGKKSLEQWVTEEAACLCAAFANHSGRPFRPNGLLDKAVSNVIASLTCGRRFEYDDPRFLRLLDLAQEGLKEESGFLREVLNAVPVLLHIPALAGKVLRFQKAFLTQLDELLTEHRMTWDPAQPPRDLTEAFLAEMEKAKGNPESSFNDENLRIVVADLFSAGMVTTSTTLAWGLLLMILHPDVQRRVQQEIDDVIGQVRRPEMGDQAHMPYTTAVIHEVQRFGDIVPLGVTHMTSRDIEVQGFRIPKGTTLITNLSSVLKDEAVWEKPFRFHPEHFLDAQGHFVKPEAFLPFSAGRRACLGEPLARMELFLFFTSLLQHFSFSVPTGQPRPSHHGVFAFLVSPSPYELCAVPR

Consider `CC(=O)N1CCOC(Cn2c(-c3c(F)cc(N4CCCC4=O)cc3F)nc3cc(C)ccc32)C1` (stereo in doubt) [Compound 1], for which the IC50 at CYP2D6 was over 30 µM. Also, the hepatocyte CLint at 1 μM in data set [1] was under 1 µL/min/1e6 cells.
For `COC(=O)N1CCOC(Cn2c(-c3c(F)cc(N4CCCC4=O)cc3F)nc3cc(C)ccc32)C1` (stereo not shown) [Compound 2, Methyl 2-((2-(2,6-difluoro-4-(2-carbonylpyrrolidin-1-yl)phenyl)-5-methyl-1H-benzo[d]imidazol-1-yl)methyl)morpholine-4-carboxylate], in that order: over 30 µM and 2.98 µL/min/1e6 cells.
Consider `CC(=O)N1CCO[C@@H](Cn2c(-c3ccc(N4CCCC4=O)cc3Cl)nc3cc(C)ccc32)C1` [Compound 3, (S)-1-(4-(1-((4-acetylmorpholin-2-yl)methyl)-5-methyl-1H-benzo[d]imidazol-2-yl)-3-chlorophenyl)pyrrolidin-2-one], for which, on CYP2D6, the half-inhibitory concentration (IC50) is over 30 µM. The hepatocyte CLint at 1 μM in data set [1] stood at 4.08 µL/min/1e6 cells.
On to `CC(=O)N1CCO[C@@H](Cn2c(-c3c(F)cc(N4CCCC4=O)cc3Cl)nc3cc(C)ccc32)C1` [Compound 4, (S)-1-(4-(1-((4-acetylmorpholin-2-yl)methyl)-5-methyl-1H-benzo[d]imidazol-2-yl)-3-chloro-5-fluorophenyl)pyrrolidin-2-one], for which, on CYP2D6, the IC50 is over 30 µM. Besides, the hepatocyte CLint at 1 μM in data set [1] is under 1 µL/min/1e6 cells. In addition, the “V” value in data set [2] was 2.05 L/kg. Further, in data set [2] (male, rat, plasma, po), the Tmax is 25.2 min and the half-life was 57.6 min. For the same molecule, in data set [2] (male, rat, po, plasma), the area under the curve AUC(0-t) turned out to be 408 ng·h/mL and the Cmax was 356 ng/mL.
As to `COC(=O)N1CCO[C@@H](Cc2c(-c3c(F)cc(N4CCCC4=O)cc3F)nc3cc(C)ccn23)C1` [Compound 9, Methyl (S)-2-((2-(2,6-difluoro-4-(2-carbonylpyrrolidin-1-yl)phenyl)-7-methylimidazo[1,2-a]pyridin-3-yl)methyl)morpholine-4-carboxylate], on CYP2D6, the IC50 is over 30 µM. The hepatocyte CLint at 1 μM in data set [1] was 3.86 µL/min/1e6 cells.
For `CC(=O)N1CCO[C@@H](Cn2c(-c3c(F)cc(N4CCCC4=O)cc3F)nc3cc(Cl)ccc32)C1` [Compound 10, (S)-1-(4-(1-((4-acetylmorpholin-2-yl)methyl)-5-chloro-1H-benzo[d]imidazol-2-yl)-3,5-difluorophenyl)pyrrolidin-2-one], in that order: over 30 µM and under 1 µL/min/1e6 cells.
Regarding `[2H]C([2H])([2H])c1ccc2c(c1)nc(-c1c(F)cc(N3CCCC3=O)cc1F)n2C[C@H]1CN(C(C)=O)CCO1` [Compound 14, (S)-1-(4-(1-((4-acetylmorpholin-2-yl)methyl)-5-(methyl-d3)-1H-benzo[d]imidazol-2-yl)-3,5-difluorophenyl)pyrrolidin-2-one], on CYP2D6, the IC50 was over 30 µM. The hepatocyte CLint at 1 μM in data set [1] is under 1 µL/min/1e6 cells.

By IC50 is commonly meant the point on the concentration scale where inhibition reaches its midpoint. As a reminder, the Tmax is the time at which the peak concentration occurs. As usually defined, the half-life is the time needed for the level to fall by half in the phase considered. A low value points to fast loss. As usually defined, the AUC(0-t) is the area under the concentration-time curve up to a stated or last time point. Lower therefore signals less exposure. What is called Cmax is the maximum level reached in the sampled fluid or tissue.
